Measurements as given in US20220143079A1, “ORAL ADMINISTRATION OF SODIUM CHLORIDE TO PREVENT COMPLICATIONS ASSOCIATED WITH BOWEL CLEANSING WITH STIMULANT LAXATIVES” (SEAFORD PHARMACEUTICALS INC., priority 2019, published 2022).

Test system: colon of patients scheduled for colonoscopy
Assay: Quality of colon cleaning assessed by Boston Scale at colonoscopy
Assay type: in vivo
Conditions: within the claimed regimen, result in words
Protocol: A prospective, open-label study involving four patients scheduled for their regular colonoscopy exam was conducted (Canadian Phase Onward Inc., Toronto, Ontario. CA). […] In addition to the standard instructions not to eat food and to drink only clear liquids, the selected patients were instructed to do the following on the day before the colonoscopy was to be performed: 1. at 10:00 AM orally taking three bisacodyl pills (Dulcolax®, Boehringer Ingelheim, Ingelheim am Rhein, Germany) with water (chewing or crushing the pills was prohibited); 2. at 3:00 PM dissolving the contents of a first sachet containing sodium picosulfate/magnesium oxide/citric acid combination ([…]®, Recordati S.p.A, Milan, Italy) with cold water and ingesting the solution after carefully stirring the solution to insure that the sodium picosulfate/magnesium oxide/citric acid combination was dissolved completely; […] […] Upon arrival at the clinic on the day of the colonoscopy, the patient's weight was recorded and blood pressure was taken and recorded and an out-patient colonoscopy was performed on each patient (North York Endoscopy Centre Inc., Toronto, Ontario, CA). The quality of the colon cleaning was assessed using the Boston Scale which is a well-established way of identifying the degree of colon cleanliness.

## CC(=O)Oc1ccc(C(c2ccc(OC(C)=O)cc2)c2ccccn2)cc1 [bisacodyl, ρ,ρ-diacetoxy-diphenyl-2-pyridylmethane]
  observed cleansing effect of the regimen component: initial expulsion of the bulk of the fecal matter
